Experimental data from patent US20260138978A1, “POSITIVE ALLOSTERIC MODULATORS OF THE MUSCARINIC ACETYLCHOLINE RECEPTOR M1” (Vanderbilt University, priority 2022, published 2026).

How the values were obtained:
human mAChRM1 [1] = molecular target: T1, human mAChRM1 (Homo sapiens, UniProt P11229); experiment: mAChR M1 cell-based functional assay (calcium mobilization), positive allosteric modulator activity: increase in the EC20 acetylcholine response; details: for Emax: PAM mode; for EC50: increase in the EC20 acetylcholine response, read-out: PAM Activity Human M1 EC50
T1 construct: host or cells: CHO-K1
T1 sequence (P11229 1-460): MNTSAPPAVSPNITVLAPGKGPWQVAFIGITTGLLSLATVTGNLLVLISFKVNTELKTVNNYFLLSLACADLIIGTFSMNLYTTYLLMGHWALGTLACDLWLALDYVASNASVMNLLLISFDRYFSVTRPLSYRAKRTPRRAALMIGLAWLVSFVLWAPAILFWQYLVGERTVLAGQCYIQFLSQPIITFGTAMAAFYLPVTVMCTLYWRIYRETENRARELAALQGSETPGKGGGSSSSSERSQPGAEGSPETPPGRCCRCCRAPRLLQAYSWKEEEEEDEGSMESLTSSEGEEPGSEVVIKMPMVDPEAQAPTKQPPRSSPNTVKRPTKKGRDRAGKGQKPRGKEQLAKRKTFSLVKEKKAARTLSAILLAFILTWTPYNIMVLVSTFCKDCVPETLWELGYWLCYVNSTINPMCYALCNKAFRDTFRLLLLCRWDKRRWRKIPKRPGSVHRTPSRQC
Description: (§1) Chinese hamster ovary (CHO-K1) cells stably expressing rat (r)M1 were purchased from the American Type Culture Collection and cultured according to their indicated protocol. CHO cells stably expressing human (h)M2, hM3, and hM5 were described previously (Levey, et al., 1991); hM1 and hM4 cDNAs were purchased from Missouri S&T cDNA Resource; rM4 cDNA was provided by T. I. Bonner (National Institutes of Health, Bethesda, MD). rM2 and rM3 were cloned from a rat brain cDNA library and sequence verified. hM1, rM2, rM3, hM4, and rM4 cDNAs were used to stably transfect CHO-K1 cells purchased from the American Type Culture Collection using Lipofectamine 2000. To make stable rM2, hM2, rM3, hM4. and rM4 cell lines for use in calcium mobilization assays, these cells also were stably transfected with a chimeric G-protein (Gqi5) (provided by B. R. Conklin, University of California, San Francisco) using Lipofectamine 2000. rM1, hM1, rM3, hM3, rM5, and hM5 cells were grown in Ham's F-12 medium containing 10% heat-inactivated fetal bovine serum (FBS), 20 mM HEPES, and 50 μg/mL G418 sulfate. rM2-Gqi5, hM2-Gqi5, and hM4-Gqi5 cells were grown in the same medium also containing 500 µg/mL Hygromycin B. Stable rM4-Gqi5 cells were grown in DMEM containing 10% heat-inactivated FBS, 20 mM HEPES, 400 μg/mL G418 sulfate, and 500 μg/mL Hygromycin B.
(§2) For high throughput measurement of agonist-evoked increases in intracellular calcium, CHO-K1 cells stably expressing muscarinic receptors were plated in growth medium lacking G418 and hygromycin at 15,000 cells/[…] in Greiner 384-well black-walled, tissue culture (TC)-treated, clear-bottom plates (VWR). Cells were incubated overnight at 37° C. and 5% CO2. The next day, cells were washed using an ELX 405 (BioTek) with four washes (80 μL) of assay buffer then aspirated to 20 μL. Next, 20 μL of 16 μM Fluo-4/acetoxymethyl ester (Invitrogen, Carlsbad, CA) prepared as a 2.3 mM stock in DMSO and mixed in a 1:1 ratio with 10% (w/v) Pluronic F-127 and diluted in assay buffer was added to the wells and the cell plates were incubated for 50 min at 37° C. and 5% CO2. Dye was removed by washing with the ELX 405 (four 80 μL washes of assay buffer) then aspirated to 20 μL. Compound master plates were formatted in an 11 point CR^c format (1:3 dilutions) in 100% DMSO with a starting concentration of 10 mM using the BRAVO liquid handler (Agilent). Test compound CRCs were then transferred to daughter plates (240 nL) using the Echo acoustic plate reformatter (Labcyte, Sunnyvale, CA) and then diluted into assay buffer ([…]) to a 2× stock using a Thermo Fisher Combi (Thermo Fisher Scientific, Waltham, MA).
(§3) Calcium flux was measured using the Functional Drug Screening System (FDSS) 6000 (Hamamatsu Corporation, Tokyo, Japan) as an increase in the fluorescent static ratio. Compounds were applied to cells (20 μL, 2×) using the automated system of the FDSS 6000 at 4 s into the 300 s protocol and the data were collected at 1 Hz. […] Agonist activity was analyzed as a concentration-dependent increase in calcium mobilization upon compound addition. Emax values for agonist activity are expressed relative to the maximum for acetylcholine. Positive allosteric modulator activity was analyzed as a concentration-dependent increase in the EC20 acetylcholine response. Antagonist activity was analyzed as a concentration-dependent decrease in the EC80 acetylcholine response. Concentration-response curves were generated using a four-parameter logistical equation in XLfit curve fitting software (IDBS, Bridgewater, NJ) for Excel (Microsoft, Redmond, WA) or Prism (GraphPad Software, Inc., San Diego, CA).
Activity (EC50 and Emax) was determined in the mAChRM1 cell-based functional assay as described above and the data are shown in Table 16. The compound numbers correspond to the compound numbers used in Table 15.

human mAChRM1 [2] = molecular target: T1, human mAChRM1; experiment: mAChR M1 cell-based functional assay (calcium mobilization), agonist activity upon compound addition, Emax relative to acetylcholine maximum; details: for EC50 / Agonist Activity Human M1 EC50: calcium mobilization upon compound addition; for Emax: relative to the maximum for acetylcholine
Description: Lack of agonist activity may be measured as weak or no increase in calcium fluorescence in mAChRM1-transfected CHO-K1 cells in the presence of the compound, compared to the response of equivalent CHO-K1 cells in the absence of the compound. Lack of mAChRM1 agonist activity may be determined as a percent response relative to acetylcholine. For example, a disclosed compound may have less than or equal to 30%, 25%, 20%, 15%, 10%, 5%, or 1% mAChRM1 agonist activity relative to acetylcholine. A disclosed compound may have substantially no mAChRM1 agonist activity. […] The absence of mAChRM1 agonist activity may contribute to the avoidance of cholinergic adverse effect liability.
as §1, §2
as §3, with “Antagonist activity was analyzed as a concentration-dependent decrease in the EC80 acetylcholine response. Concentration-response curves were generated using a four-parameter logistical equation in XLfit curve fitting software (IDBS, Bridgewater, NJ) for Excel (Microsoft, Redmond, WA) or Prism (GraphPad Software, Inc., San Diego, CA).” left out

| Emax (human mAChRM1 [1]) [%] | EC50 (human mAChRM1 [1]) [µM] | EC50 (human mAChRM1 [2]) [µM] | Emax (human mAChRM1 [2]) [%] | Agonist Activity Human M1 EC50 (human mAChRM1 [2]) | SMILES |
| --- | --- | --- | --- | --- | --- |
| 88 | 0.201 | ≥ 10 | 22 |  | Cn1cc2c(-c3cc(F)c(CN4Cc5cccnc5C4=O)c(F)c3)ccc(C(C)(C)O)c2n1 [Compound 121, 6-(2,6-difluoro-4-(7-(2-hydroxypropan-2-yl)-2-methyl-2H-indazol-4-yl)benzyl)-5,6-dihydro-7H-pyrrolo[3,4-b]pyridin-7-one] |
| 84 | 0.63 |  |  | inactive | Cn1cc2c(-c3cc(F)c(CN4Cc5ncccc5C4=O)c(F)c3)ccc(C3(O)CCC3)c2n1 [Compound 96, 6-(2,6-difluoro-4-(7-(1-hydroxycyclobutyl)-2-methyl-2H-indazol-4-yl)benzyl)-6,7-dihydro-5H-pyrrolo[3,4-b]pyridin-5-one] |
| 86 | 0.648 | 9.68 | 21 |  | Cn1cc2c(-c3cc(F)c(CN4Cc5cccnc5C4=O)c(C4CCCC4)c3)ccc(C(C)(C)O)c2n1 [Compound 136, 6-(2-cyclopentyl-6-fluoro-4-(7-(2-hydroxypropan-2-yl)-2-methyl-2H-indazol-4-yl)benzyl)-5,6-dihydro-7H-pyrrolo[3,4-b]pyridin-7-one] |
| 84 | 1.87 |  |  | inactive | Cn1cc2c(-c3cnc(CN4Cc5cccnc5C4=O)c(F)c3)ccc(C(C)(C)O)c2n1 [Compound 124, 6-((3-fluoro-5-(7-(2-hydroxypropan-2-yl)-2-methyl-2H-indazol-4-yl)pyridin-2-yl)methyl)-5,6-dihydro-7H-pyrrolo[3,4-b]pyridin-7-one] |
| 78 | 2.21 |  |  | inactive | CCC(O)(CC)c1ccc(-c2ccc(CN3Cc4ncccc4C3=O)c(F)c2)c2cn(C)nc12 [Compound 70, 6-(2-fluoro-4-(7-(3-hydroxypentan-3-yl)-2-methyl-2H-indazol-4-yl)benzyl)-6,7-dihydro-5H-pyrrolo[3,4-b]pyridin-5-one] |
| 78 | 0.066 | 2.06 | 54 |  | [2H]C([2H])([2H])n1cc2c(-c3cc(F)c(CN4Cc5ncccc5C4=O)c(C4CC4)c3)ccc(C(C)(C)O)c2n1 (single isomer, unassigned) [Compound 16, 6-(2-cyclopropyl-6-fluoro-4-(7-(2-hydroxypropan-2-yl)-2-(methyl-d3)-2H-indazol-4-yl)benzyl)-6,7-dihydro-5H-pyrrolo[3,4-b]pyridin-5-one] |
| 66 | 3.7 |  |  | inactive | CC(C)(O)c1ccc(-c2cc(F)c(CN3Cc4cccnc4C3=O)c(Cl)c2)cc1 [Compound 120, 6-((3-chloro-5-fluoro-4′-(2-hydroxypropan-2-yl)-[1,1′-biphenyl]-4-yl)methyl)-5,6-dihydro-7H-pyrrolo[3,4-b]pyridin-7-one] |
| 77 | 2.79 | ≥ 10 | 12 |  | CC(C)(O)c1cc2c(-c3cc(F)c(CN4Cc5ncccc5C4=O)c(F)c3)cccn2n1 [Compound 107, 6-(2,6-difluoro-4-(2-(2-hydroxypropan-2-yl)pyrazolo[1,5-a]pyridin-4-yl)benzyl)-6,7-dihydro-5H-pyrrolo[3,4-b]pyridin-5-one] |
| 50 | ≥ 10 |  |  | inactive | Cn1cc2c(C(C)(C)O)cc(-c3cc(F)c(CN4Cc5ncccc5C4=O)c(F)c3)cc2n1 [Compound 19, 6-(2,6-difluoro-4-(4-(2-hydroxypropan-2-yl)-2-methyl-2H-indazol-6-yl)benzyl)-6,7-dihydro-5H-pyrrolo[3,4-b]pyridin-5-one] |
| 50 | 5.16 |  |  | inactive | Cc1c(C(C)(C)O)ccc(-c2cc(F)c(CN3Cc4ncccc4C3=O)c(F)c2)c1F [Compound 56, 6-((2′,3,5-trifluoro-4′-(2-hydroxypropan-2-yl)-3′-methyl-[1,1′-biphenyl]-4-yl)methyl)-6,7-dihydro-5H-pyrrolo[3,4-b]pyridin-5-one] |
| 76 | 2.52 |  |  | inactive | Cc1cc(-c2cc(C(C)(C)O)cc3nn(C)cc23)cc(F)c1CN1Cc2ncccc2C1=O [Compound 25, 6-(2-fluoro-4-(6-(2-hydroxypropan-2-yl)-2-methyl-2H-indazol-4-yl)-6-methylbenzyl)-6,7-dihydro-5H-pyrrolo[3,4-b]pyridin-5-one] |
| 75 | 0.202 | ≥ 10 | 19 |  | Cc1cc(-c2ccc(C(C)(C)O)c3nn(C)cc23)cc(F)c1CN1Cc2cccc(F)c2C1=O [Compound 162, 7-fluoro-2-(2-fluoro-4-(7-(2-hydroxypropan-2-yl)-2-methyl-2H-indazol-4-yl)-6-methylbenzyl)isoindolin-1-one] |
| 81 | 4.53 |  |  | inactive | CC(C)(O)c1ccc(-c2ccc(CN3Cc4cccnc4C3=O)c(F)c2)cc1 [Compound 127, 6-((3-fluoro-4′-(2-hydroxypropan-2-yl)-[1,1′-biphenyl]-4-yl)methyl)-5,6-dihydro-7H-pyrrolo[3,4-b]pyridin-7-one] |
| 79 | 1.01 |  |  | inactive | CC(C)(O)c1ccc(-c2cc(F)c(CN3Cc4ccncc4C3=O)c(F)c2)cc1 [Compound 141, 2-((3,5-difluoro-4′-(2-hydroxypropan-2-yl)-[1,1′-biphenyl]-4-yl)methyl)-1,2-dihydro-3H-pyrrolo[3,4-c]pyridin-3-one] |
